Reference: US20240270762A1, “PENICILLIN-BINDING PROTEIN INHIBITORS” (priority 2021, published 2024)
Values after ≈ are worked out from the molar mass of the structure shown.

Key:
[1] = test system: P. aeruginosa (ΔmexAB-oprM); assay: Broth microdilution MIC in iron-depleted CAMHB (IDM); type: cell-based; details: Pseudomonas aeruginosa; iron-depleted CAMHB (IDM); […]; read-out: Minimum inhibitory concentration, P. aeruginosa ΔmexAB-oprM
[2] = test system: P. aeruginosa CDC-0090; assay: microbe, parasite or virus in culture; type: cell-based; details: Pseudomonas aeruginosa, CDC0090, read-out: Minimum inhibitory concentration, P. aeruginosa CDC-0090
[3] = molecular target: T1, PBP3 from Escherichia coli (K-12) (Escherichia coli, UniProt P0AD68); assay: Bocillin-FL fluorescence polarization competition binding, E. coli PBP3
T1 construct: made in house
T1 sequence (P0AD68 1-577): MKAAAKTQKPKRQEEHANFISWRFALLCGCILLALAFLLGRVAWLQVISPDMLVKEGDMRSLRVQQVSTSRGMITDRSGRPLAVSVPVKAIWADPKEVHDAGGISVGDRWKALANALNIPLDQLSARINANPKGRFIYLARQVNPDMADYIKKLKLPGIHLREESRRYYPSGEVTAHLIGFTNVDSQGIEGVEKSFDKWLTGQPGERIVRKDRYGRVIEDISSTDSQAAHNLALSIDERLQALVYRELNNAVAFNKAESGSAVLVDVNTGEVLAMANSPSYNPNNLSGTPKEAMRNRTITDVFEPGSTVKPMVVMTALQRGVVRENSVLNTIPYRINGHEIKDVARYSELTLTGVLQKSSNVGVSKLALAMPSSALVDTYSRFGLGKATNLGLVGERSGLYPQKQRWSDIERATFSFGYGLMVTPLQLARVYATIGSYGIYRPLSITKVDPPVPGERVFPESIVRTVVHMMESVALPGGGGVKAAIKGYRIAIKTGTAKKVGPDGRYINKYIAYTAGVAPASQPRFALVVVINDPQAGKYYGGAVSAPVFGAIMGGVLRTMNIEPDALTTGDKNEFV
Method in brief: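 Purified PBPs pre-incubated with inhibitor (E. coli PBP3 1.5 μM, 30 min; P. aeruginosa PBP3 0.75 μM, A. baumannii PBP1a 1 μM and PBP3 0.2 μM, 15 min), then Bocillin-FL 0.1 μM (0.05 μM for PBP1a) added; FP read up to 60 min. EC50 = concentration halving bound Bocillin-FL.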

[4] = test system: A. baumannii CDC-0083; assay: microbe, parasite or virus in culture; type: cell-based; details: Acinetobacter baumannii, CDC0083, read-out: MIC, A. baumannii CDC-0083
[5] = test system: P. aeruginosa ATCC 27853; assay: microbe, parasite or virus in culture; type: cell-based; details: Pseudomonas aeruginosa, ATCC27853, read-out: Minimum inhibitory concentration, P. aeruginosa ATCC 27853
[6] = test system: A. baumannii 1258916; assay: microbe, parasite or virus in culture; type: cell-based, Acinetobacter baumannii; details: Acinetobacter baumannii, 1258916, read-out: MIC, A. baumannii 1258916
[7] = test system: P. aeruginosa CDC-0110; assay: microbe, parasite or virus in culture; type: cell-based; details: Pseudomonas aeruginosa, CDC0110, read-out: Minimum inhibitory concentration, P. aeruginosa CDC-0110
[8] = test system: B. thailandensis ATCC 700388; assay: microbe, parasite or virus in culture; type: cell-based; details: Burkholderia thailandensis, ATCC700388, read-out: Minimum inhibitory concentration (MIC), B. thailandensis ATCC 700388
[9] = test system: A. baumannii CDC-0036; assay: microbe, parasite or virus in culture; type: cell-based; details: Acinetobacter baumannii, CDC0036, read-out: MIC, A. baumannii CDC-0036
[10] = test system: P. aeruginosa CDC-0054; assay: microbe, parasite or virus in culture; type: cell-based; details: Pseudomonas aeruginosa, CDC0054, read-out: Minimum inhibitory concentration, P. aeruginosa CDC-0054

Row | SMILES | MIC [1] [µg/mL] | MIC [2] [µg/mL] | EC50 [3] [µM] | MIC [4] [µg/mL] | MIC [5] [µg/mL] | MIC [6] [µg/mL] | MIC [7] [µg/mL] | MIC [8] [µg/mL] | MIC [9] [µg/mL] | MIC [10] [µg/mL]
1 | O=C(NCCCN1CCN(C(=O)NC(C(=O)N[C@H]2Cc3ccc(F)c(C(=O)O)c3OB2O)c2cc(F)c(O)c(O)c2Cl)C(=O)C1=O)c1c(F)cc(O)cc1Cl (stereo partly drawn) [Example 421, (3R)-3-(2-(2-chloro-5-fluoro-3,4-dihydroxyphenyl)-2-(4-(3-(2-chloro-6-fluoro-4-hydroxybenzamido)propyl)-2,3-dioxopiperazine-1-carboxamido)acetamido)-7-fluoro-2-hydroxy-3,4-dihydro-2H-benzo[e][1,2]oxaborinine-8-carboxylic acid] | < 1 | < 1 | < 10 | > 128 | 2 to 4 (≈ 2.46 to 4.92 µM) | 2 to 4 (≈ 2.46 to 4.92 µM) | < 1 | 2 to 4 (≈ 2.46 to 4.92 µM) | 2 to 4 (≈ 2.46 to 4.92 µM) | < 1
2 | O=C(NCCCN1CCN(C(=O)N[C@@H](C(=O)N[C@H]2Cc3ccc(F)c(C(=O)O)c3OB2O)c2cc(F)c(O)c(O)c2Cl)C(=O)C1=O)c1cc(F)c(O)c(F)c1 [Example 422, (R)-3-((R)-2-(2-chloro-5-fluoro-3,4-dihydroxyphenyl)-2-(4-(3-(3,5-difluoro-4-hydroxybenzamido)propyl)-2,3-dioxopiperazine-1-carboxamido)acetamido)-7-fluoro-2-hydroxy-3,4-dihydro-2H-benzo[e][1,2]oxaborinine-8-carboxylic acid] | < 1 | 2 to 4 (≈ 2.51 to 5.03 µM) | < 10 | > 128 | 2 to 4 (≈ 2.51 to 5.03 µM) | < 1 | < 1 | < 1 | 2 to 4 (≈ 2.51 to 5.03 µM) | < 1
3 | O=C(NCCCN1CCN(C(=O)NC(C(=O)N[C@H]2Cc3ccc(F)c(C(=O)O)c3OB2O)c2cc(F)c(O)c(O)c2Cl)C(=O)C1=O)c1cc(O)cc(O)c1 (stereo partly drawn) [Example 423, (3R)-3-(2-(2-chloro-5-fluoro-3,4-dihydroxyphenyl)-2-(4-(3-(3,5-dihydroxybenzamido)propyl)-2,3-dioxopiperazine-1-carboxamido)acetamido)-7-fluoro-2-hydroxy-3,4-dihydro-2H-benzo[e][1,2]oxaborinine-8-carboxylic acid] | < 1 | < 1 | < 10 | > 128 | < 1 | < 1 | < 1 | < 1 | 2 to 4 (≈ 2.58 to 5.16 µM) | < 1
4 | O=C(O)c1c(F)ccc2c1OB(O)[C@@H](NC(=O)C(NC(=O)N1CCN(C3CCN(C(=O)Nc4cccc(O)c4)CC3)C(=O)C1=O)c1cc(F)c(O)c(O)c1Cl)C2 (stereo partly drawn) [Example 424, (3R)-3-(2-(2-chloro-5-fluoro-3,4-dihydroxyphenyl)-2-(4-(1-((3-hydroxyphenyl)carbamoyl)piperidin-4-yl)-2,3-dioxopiperazine-1-carboxamido)acetamido)-7-fluoro-2-hydroxy-3,4-dihydro-2H-benzo[e][1,2]oxaborinine-8-carboxylic acid] | < 1 | < 1 | < 10 | 2 to 4 (≈ 2.5 to 4.99 µM) | < 1 | < 1 | < 1 | < 1 | < 1 | < 1
5 | O=C(O)c1c(F)ccc2c1OB(O)[C@@H](NC(=O)C(NC(=O)N1CCN(C3CCN(C(=O)c4cncc(O)c4)CC3)C(=O)C1=O)c1cc(F)c(O)c(O)c1Cl)C2 (stereo partly drawn) [Example 425, (3R)-3-(2-(2-chloro-5-fluoro-3,4-dihydroxyphenyl)-2-(4-(1-(5-hydroxynicotinoyl)piperidin-4-yl)-2,3-dioxopiperazine-1-carboxamido)acetamido)-7-fluoro-2-hydroxy-3,4-dihydro-2H-benzo[e][1,2]oxaborinine-8-carboxylic acid] | < 1 | < 1 | < 10 | 8 to 16 (≈ 10.2 to 20.3 µM) | < 1 | < 1 | < 1 | < 1 | < 1 | < 1
6 | O=C(O)c1c(F)ccc2c1OB(O)[C@@H](NC(=O)C(NC(=O)N1CCN(C3CCN(S(=O)(=O)c4cccc(O)c4)CC3)C(=O)C1=O)c1cc(F)c(O)c(O)c1Cl)C2 (stereo partly drawn) [Example 428, (3R)-3-(2-(2-chloro-5-fluoro-3,4-dihydroxyphenyl)-2-(4-(1-((3-hydroxyphenyl)sulfonyl)piperidin-4-yl)-2,3-dioxopiperazine-1-carboxamido)acetamido)-7-fluoro-2-hydroxy-3,4-dihydro-2H-benzo[e][1,2]oxaborinine-8-carboxylic acid] | < 1 | < 1 | < 10 | 8 to 16 (≈ 9.73 to 19.5 µM) | 2 to 4 (≈ 2.43 to 4.87 µM) | < 1 | < 1 | > 128 | 2 to 4 (≈ 2.43 to 4.87 µM) | < 1
7 | O=C(O)c1c(F)ccc2c1OB(O)[C@@H](NC(=O)C(NC(=O)N1CCN(C3CCN(S(=O)(=O)c4ccc(O)cc4)CC3)C(=O)C1=O)c1cc(F)c(O)c(O)c1Cl)C2 (stereo partly drawn) [Example 429, (3R)-3-(2-(2-chloro-5-fluoro-3,4-dihydroxyphenyl)-2-(4-(1-((4-hydroxyphenyl)sulfonyl)piperidin-4-yl)-2,3-dioxopiperazine-1-carboxamido)acetamido)-7-fluoro-2-hydroxy-3,4-dihydro-2H-benzo[e][1,2]oxaborinine-8-carboxylic acid] | < 1 | < 1 | < 10 | 8 to 16 (≈ 9.73 to 19.5 µM) | 2 to 4 (≈ 2.43 to 4.87 µM) | < 1 | < 1 | 8 to 16 (≈ 9.73 to 19.5 µM) | 2 to 4 (≈ 2.43 to 4.87 µM) | < 1
8 | O=C(NCCCN1CCN(C(=O)NC(C(=O)N[C@H]2Cc3ccc(F)c(C(=O)O)c3OB2O)c2cc(F)c(O)c(O)c2Cl)C(=O)C1=O)c1ccnc(F)c1 (stereo partly drawn) [Example 466, (3R)-3-(2-(2-chloro-5-fluoro-3,4-dihydroxyphenyl)-2-(4-(3-(2-fluoroisonicotinamido)propyl)-2,3-dioxopiperazine-1-carboxamido)acetamido)-7-fluoro-2-hydroxy-3,4-dihydro-2H-benzo[e][1,2]oxaborinine-8-carboxylic acid] | < 1 | 2 to 4 (≈ 2.62 to 5.24 µM) | < 10 | 2 to 4 (≈ 2.62 to 5.24 µM) | 2 to 4 (≈ 2.62 to 5.24 µM) | 2 to 4 (≈ 2.62 to 5.24 µM) | < 1 | 2 to 4 (≈ 2.62 to 5.24 µM) | 2 to 4 (≈ 2.62 to 5.24 µM) | < 1
